# From ChEMBL document CHEMBL4414548 (J Med Chem, 2019)
# Tests used:
# [1] = Drug concentration in IL12/IL18-induced C57BL/6 mouse serum at 10 mg/kg, po pretreated for 1 hr followed by IL12 stimulation and subsequent IL18 addition and measured after 5 hrs; format: ADME, organism-based; details: read-out: Drug uptake
# [2] = Drug concentration in IL12/IL18-induced C57BL/6 mouse serum at 1 mg/kg, po pretreated for 1 hr followed by IL12 stimulation and subsequent IL18 addition and measured after 5 hrs; format: ADME, organism-based; details: read-out: Drug uptake
# [3] = target: Non-receptor tyrosine-protein kinase TYK2 (Mus musculus, UniProt Q9R117); experiment: Inhibition of TYK2 JH2 domain in mouse whole blood assessed as inhibition of IFNalpha-induced STAT1 phosphorylation preincubated for 1 hr followed by IFNalpha stimulation and measured after 15 mins by fluorescence assay; format: tissue-based
# [4] = target: JAK1/TYK2 (Homo sapiens, UniProt P23458+P29597); experiment: Inhibition of TYK2/JAK1 in IFNalpha-stimulated human Kit225 cells by steady-glo luciferase assay
# [5] = Half life in human liver microsomes; format: ADME, Microsome
# [6] = Ratio of drug concentration in IL12/IL18-induced C57BL/6 mouse serum at 1 mg/kg, po to IC50 for TYK2 JH2 domain in mouse whole blood; format: ADME, organism-based; details: in vivo
# [7] = Terminal drug concentration in CD40-induced B6 CB17 mouse serum at 25 mg/kg, po BID administered as nanosuspension measured 24 hrs post-last dose; format: ADME, organism-based; details: read-out: Drug uptake
# [8] = tested on: Mus musculus; experiment: Inhibition of IL12/IL18-induced IFNgamma production in C57BL/6 mouse at 1 mg/kg, po pretreated for 1 hr followed by IL12 stimulation and subsequent IL18 addition and measured after 3 hrs relative to control; format: functional; details: C57BL/6, po
# [9] = Half life in dog liver microsomes; format: ADME, Canis lupus familiaris, Microsome
# [10] = Terminal drug concentration in CD40-induced B6 CB17 mouse serum at 80 mg/kg, po BID administered as nanosuspension measured 24 hrs post-last dose; format: ADME, organism-based; details: read-out: Drug uptake
# [11] = target: Tyrosine-protein kinase JAK1 (Homo sapiens, UniProt P23458); experiment: Inhibition of JAK1 JH1 domain (unknown origin)
# [12] = Half life in cynomolgus monkey liver microsomes; format: ADME, Macaca fascicularis, Microsome
# [13] = AUClast in mouse at 10 mg/kg, po after 7 hrs; format: ADME, organism-based; design: time < 7 hr, dose 10 mg/kg, route oral; details: in vivo
# [14] = tested on: Mus musculus; experiment: Inhibition of IL12/IL18-induced IFNgamma production in C57BL/6 mouse at 10 mg/kg, po pretreated for 1 hr followed by IL12 stimulation and subsequent IL18 addition and measured after 3 hrs relative to control; format: functional; details: C57BL/6, po
# [15] = Drug metabolism in C57BL/6 mouse plasma assessed as amide formation at 0.3 to 10 mg/kg, po; format: ADME, organism-based; details: in vivo
# [16] = Ratio of drug concentration in IL12/IL18-induced C57BL/6 mouse serum at 0.3 mg/kg, po to IC50 for TYK2 JH2 domain in mouse whole blood; format: ADME, organism-based; details: in vivo
# [17] = Drug concentration in IL12/IL18-induced C57BL/6 mouse serum at 0.3 mg/kg, po pretreated for 1 hr followed by IL12 stimulation and subsequent IL18 addition and measured after 5 hrs; format: ADME, organism-based; details: read-out: Drug uptake
# [18] = Half life in rat liver microsomes; format: ADME, Microsome
# [19] = Permeability across apical to basolateral side in human Caco2 cells; format: ADME, cell-based; details: Caco-2, read-out: permeability
# [20] = Ratio of drug concentration in IL12/IL18-induced C57BL/6 mouse serum at 10 mg/kg, po to IC50 for TYK2 JH2 domain in mouse whole blood; format: ADME, organism-based; details: in vivo
# [21] = Efflux ratio of permeability in human Caco2; format: ADME, cell-based; details: Caco-2
# [22] = target: T1, Non-receptor tyrosine-protein kinase TYK2 (Homo sapiens, UniProt P29597); experiment: Inhibition of fluorescein-labeled kinase tracer binding to His-TVMV-fused TYK2 JH2 domain (575 to 869 residues) (unknown origin) measured after 90 mins by HTRF assay
# [23] = tested on: Mus musculus; experiment: Inhibition of IL12/IL18-induced IFNgamma production in C57BL/6 mouse at 3 mg/kg, po pretreated for 1 hr followed by IL12 stimulation and subsequent IL18 addition and measured after 3 hrs relative to control; format: functional; details: C57BL/6, po
# [24] = Drug concentration in IL12/IL18-induced C57BL/6 mouse serum at 3 mg/kg, po pretreated for 1 hr followed by IL12 stimulation and subsequent IL18 addition and measured after 5 hrs; format: ADME, organism-based; details: read-out: Drug uptake
# [25] = Terminal drug concentration in CD40-induced B6 CB17 mouse serum at 250 mg/kg, po BID administered as nanosuspension measured 24 hrs post-last dose; format: ADME, organism-based; details: read-out: Drug uptake
# [26] = target: T1, Non-receptor tyrosine-protein kinase TYK2; experiment: Inhibition of TYK2 JH1 domain (unknown origin)
# [27] = Half life in mouse liver microsomes; format: ADME, Microsome
# [28] = target: Tyrosine-protein kinase JAK2 (Homo sapiens, UniProt O60674); experiment: Inhibition of JAK2 JH1 domain (unknown origin)
# [29] = target: T1, Non-receptor tyrosine-protein kinase TYK2; experiment: Inhibition of TYK2 JH2 domain in human whole blood assessed as inhibition of IFNalpha-induced STAT5 phosphorylation preincubated for 1 hr followed by IFNalpha stimulation and measured after 15 mins by fluorescence assay; format: tissue-based
# [30] = Ratio of drug concentration in IL12/IL18-induced C57BL/6 mouse serum at 3 mg/kg, po to IC50 for TYK2 JH2 domain in mouse whole blood; format: ADME, organism-based; details: in vivo
# [31] = Partition coefficient, log P of compound by HPLC analysis; format: physicochemical; details: octanol/water
# [32] = target: T1, Non-receptor tyrosine-protein kinase TYK2; experiment: Inhibition of TYK2 JH2 (unknown origin) by morrison titration assay; details: read-out: Ki(app)
# [33] = Cmax in mouse at 10 mg/kg, po after 7 hrs; format: ADME, organism-based; design: dose 10 mg/kg, route oral; details: in vivo
# [34] = tested on: Mus musculus; experiment: Inhibition of IL12/IL18-induced IFNgamma production in C57BL/6 mouse at 0.3 mg/kg, po pretreated for 1 hr followed by IL12 stimulation and subsequent IL18 addition and measured after 3 hrs relative to control; format: functional; details: C57BL/6, po
# T1 sequence (P29597 whole entry, the tested form may be a part): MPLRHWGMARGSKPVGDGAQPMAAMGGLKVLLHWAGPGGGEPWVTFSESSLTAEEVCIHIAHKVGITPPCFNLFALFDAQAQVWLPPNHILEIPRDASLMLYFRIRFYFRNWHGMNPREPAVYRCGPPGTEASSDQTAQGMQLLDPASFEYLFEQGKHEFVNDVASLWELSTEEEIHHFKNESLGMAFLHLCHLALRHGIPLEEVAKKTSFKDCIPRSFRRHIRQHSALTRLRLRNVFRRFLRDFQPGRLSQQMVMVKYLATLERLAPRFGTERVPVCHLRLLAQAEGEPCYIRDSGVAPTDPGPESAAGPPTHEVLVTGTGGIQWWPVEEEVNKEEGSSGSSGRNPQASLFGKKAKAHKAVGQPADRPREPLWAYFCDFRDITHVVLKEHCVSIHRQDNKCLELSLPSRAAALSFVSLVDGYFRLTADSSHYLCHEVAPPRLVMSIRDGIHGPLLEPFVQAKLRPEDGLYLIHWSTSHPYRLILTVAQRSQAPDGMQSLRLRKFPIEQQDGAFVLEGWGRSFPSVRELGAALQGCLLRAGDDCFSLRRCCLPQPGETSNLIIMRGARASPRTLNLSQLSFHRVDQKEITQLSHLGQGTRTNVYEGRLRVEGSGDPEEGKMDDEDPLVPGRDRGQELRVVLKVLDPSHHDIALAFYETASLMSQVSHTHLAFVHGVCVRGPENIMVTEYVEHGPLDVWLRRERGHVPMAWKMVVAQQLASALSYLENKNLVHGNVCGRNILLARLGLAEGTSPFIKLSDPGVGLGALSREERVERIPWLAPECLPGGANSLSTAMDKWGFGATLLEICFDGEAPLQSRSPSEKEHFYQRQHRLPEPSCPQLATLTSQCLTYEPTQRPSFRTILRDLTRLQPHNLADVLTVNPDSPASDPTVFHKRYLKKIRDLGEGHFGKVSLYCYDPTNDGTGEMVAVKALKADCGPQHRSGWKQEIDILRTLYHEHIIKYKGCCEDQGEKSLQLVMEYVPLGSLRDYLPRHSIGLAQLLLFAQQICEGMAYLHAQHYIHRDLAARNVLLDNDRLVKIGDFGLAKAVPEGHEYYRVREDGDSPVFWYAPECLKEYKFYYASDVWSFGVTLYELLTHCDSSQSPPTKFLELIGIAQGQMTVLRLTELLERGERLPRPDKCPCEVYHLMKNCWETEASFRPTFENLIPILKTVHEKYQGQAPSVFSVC
# Non-receptor tyrosine-protein kinase TYK2 (Mus musculus, UniProt Q9R117), sequence (Q9R117 whole entry, the tested form may be a part): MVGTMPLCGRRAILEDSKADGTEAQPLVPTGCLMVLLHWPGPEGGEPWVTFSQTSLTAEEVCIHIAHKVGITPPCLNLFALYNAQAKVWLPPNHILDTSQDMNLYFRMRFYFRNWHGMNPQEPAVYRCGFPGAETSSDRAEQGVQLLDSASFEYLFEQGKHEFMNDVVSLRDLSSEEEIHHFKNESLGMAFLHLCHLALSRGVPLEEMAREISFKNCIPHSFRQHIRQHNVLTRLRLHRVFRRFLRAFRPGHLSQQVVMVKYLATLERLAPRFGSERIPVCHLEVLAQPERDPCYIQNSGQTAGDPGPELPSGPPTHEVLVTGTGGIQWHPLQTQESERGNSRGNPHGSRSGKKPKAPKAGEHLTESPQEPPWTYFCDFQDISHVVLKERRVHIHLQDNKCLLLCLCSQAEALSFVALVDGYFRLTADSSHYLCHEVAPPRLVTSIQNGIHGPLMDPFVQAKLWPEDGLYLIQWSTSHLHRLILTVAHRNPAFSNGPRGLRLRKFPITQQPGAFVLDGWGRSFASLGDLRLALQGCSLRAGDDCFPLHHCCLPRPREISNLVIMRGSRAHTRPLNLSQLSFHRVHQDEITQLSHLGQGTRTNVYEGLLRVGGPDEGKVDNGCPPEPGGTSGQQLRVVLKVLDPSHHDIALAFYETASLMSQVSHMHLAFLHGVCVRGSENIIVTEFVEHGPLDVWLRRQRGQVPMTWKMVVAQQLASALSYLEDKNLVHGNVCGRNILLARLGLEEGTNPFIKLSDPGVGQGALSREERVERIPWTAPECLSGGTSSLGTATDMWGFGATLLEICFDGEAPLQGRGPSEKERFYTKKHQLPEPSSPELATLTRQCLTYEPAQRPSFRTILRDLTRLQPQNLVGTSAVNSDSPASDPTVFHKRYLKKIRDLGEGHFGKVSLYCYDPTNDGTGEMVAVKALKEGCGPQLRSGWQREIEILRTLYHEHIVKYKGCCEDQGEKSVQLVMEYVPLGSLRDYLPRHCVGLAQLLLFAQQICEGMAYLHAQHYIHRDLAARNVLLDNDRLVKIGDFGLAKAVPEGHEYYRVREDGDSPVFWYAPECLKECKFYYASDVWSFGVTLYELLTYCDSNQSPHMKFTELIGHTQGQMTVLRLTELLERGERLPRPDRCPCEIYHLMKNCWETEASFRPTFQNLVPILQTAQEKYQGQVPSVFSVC
# Tyrosine-protein kinase JAK2, sequence (O60674 whole entry, the tested form may be a part): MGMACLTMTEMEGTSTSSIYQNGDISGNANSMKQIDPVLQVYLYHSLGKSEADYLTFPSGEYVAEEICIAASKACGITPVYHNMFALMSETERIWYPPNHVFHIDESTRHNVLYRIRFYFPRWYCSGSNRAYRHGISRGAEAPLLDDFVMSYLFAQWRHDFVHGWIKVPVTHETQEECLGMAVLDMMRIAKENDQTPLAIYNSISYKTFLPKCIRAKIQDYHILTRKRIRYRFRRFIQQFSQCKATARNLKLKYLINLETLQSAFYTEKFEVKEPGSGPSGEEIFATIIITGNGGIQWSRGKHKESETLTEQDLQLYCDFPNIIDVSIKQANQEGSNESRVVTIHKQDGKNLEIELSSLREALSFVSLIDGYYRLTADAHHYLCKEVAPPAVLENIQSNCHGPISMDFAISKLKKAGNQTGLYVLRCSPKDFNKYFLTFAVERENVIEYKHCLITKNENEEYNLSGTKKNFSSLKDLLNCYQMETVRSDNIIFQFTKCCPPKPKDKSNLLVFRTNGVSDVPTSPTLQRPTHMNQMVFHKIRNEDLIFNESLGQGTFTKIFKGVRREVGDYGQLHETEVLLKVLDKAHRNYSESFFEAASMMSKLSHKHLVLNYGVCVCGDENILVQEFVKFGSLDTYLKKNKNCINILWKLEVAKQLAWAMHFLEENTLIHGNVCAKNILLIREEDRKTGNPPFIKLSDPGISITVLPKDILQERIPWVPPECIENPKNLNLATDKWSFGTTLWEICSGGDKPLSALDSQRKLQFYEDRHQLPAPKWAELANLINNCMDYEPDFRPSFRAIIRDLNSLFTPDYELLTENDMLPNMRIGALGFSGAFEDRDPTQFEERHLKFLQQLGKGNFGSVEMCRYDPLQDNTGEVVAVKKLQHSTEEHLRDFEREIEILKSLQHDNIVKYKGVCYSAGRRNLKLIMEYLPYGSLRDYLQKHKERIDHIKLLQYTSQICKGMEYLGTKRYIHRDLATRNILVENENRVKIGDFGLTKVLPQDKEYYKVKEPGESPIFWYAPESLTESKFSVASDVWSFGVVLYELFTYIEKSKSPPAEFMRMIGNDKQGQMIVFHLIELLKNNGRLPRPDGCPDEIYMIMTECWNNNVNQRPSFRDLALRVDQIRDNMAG
# JAK1/TYK2, sequence (P23458 whole entry): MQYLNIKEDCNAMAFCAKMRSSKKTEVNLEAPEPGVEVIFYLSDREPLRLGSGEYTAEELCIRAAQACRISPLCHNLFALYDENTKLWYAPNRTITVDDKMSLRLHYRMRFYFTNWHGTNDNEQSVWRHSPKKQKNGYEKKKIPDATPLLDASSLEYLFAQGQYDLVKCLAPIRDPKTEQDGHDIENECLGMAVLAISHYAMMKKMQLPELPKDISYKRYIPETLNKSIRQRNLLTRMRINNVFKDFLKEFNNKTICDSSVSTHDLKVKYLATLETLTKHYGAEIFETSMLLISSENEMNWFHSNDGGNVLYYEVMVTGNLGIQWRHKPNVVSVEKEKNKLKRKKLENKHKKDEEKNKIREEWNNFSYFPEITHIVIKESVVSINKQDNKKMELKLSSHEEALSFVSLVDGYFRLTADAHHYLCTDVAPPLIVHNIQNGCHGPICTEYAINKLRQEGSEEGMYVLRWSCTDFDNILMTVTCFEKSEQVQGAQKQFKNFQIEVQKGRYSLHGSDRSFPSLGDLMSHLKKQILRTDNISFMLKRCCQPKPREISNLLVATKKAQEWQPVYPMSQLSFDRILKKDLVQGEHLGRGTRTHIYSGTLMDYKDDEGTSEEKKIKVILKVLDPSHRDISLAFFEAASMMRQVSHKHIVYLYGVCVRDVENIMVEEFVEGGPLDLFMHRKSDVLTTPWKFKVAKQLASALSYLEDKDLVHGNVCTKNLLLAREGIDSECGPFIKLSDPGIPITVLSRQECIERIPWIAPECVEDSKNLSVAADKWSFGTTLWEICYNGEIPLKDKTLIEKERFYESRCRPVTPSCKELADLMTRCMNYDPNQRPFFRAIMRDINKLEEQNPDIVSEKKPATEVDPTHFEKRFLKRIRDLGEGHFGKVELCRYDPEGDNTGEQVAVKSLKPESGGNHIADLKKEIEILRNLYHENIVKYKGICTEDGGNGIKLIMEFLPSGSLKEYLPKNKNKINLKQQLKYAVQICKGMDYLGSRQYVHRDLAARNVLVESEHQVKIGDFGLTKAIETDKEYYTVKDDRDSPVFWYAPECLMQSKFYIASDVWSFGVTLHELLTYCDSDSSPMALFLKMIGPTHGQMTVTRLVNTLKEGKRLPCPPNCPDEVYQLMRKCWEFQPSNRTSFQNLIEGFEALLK
# JAK1/TYK2, sequence (P29597 whole entry): as the sequence (P29597 whole entry, the tested form may be a part) above
# Tyrosine-protein kinase JAK1, sequence (P23458 whole entry, the tested form may be a part): as the sequence (P23458 whole entry) above
compound,measurement,setting,value
[2H]C([2H])([2H])NC(=O)c1nnc(Nc2ccccn2)cc1Nc1ccccc1S(C)(=O)=O,concentration at 5 h,[1],503 nM
same,concentration at 5 h,[2],69 nM
same,IC50,[3],120 nM
same,IC50,[4],0.53 nM
same,half-life,[5],48 min
same,Ratio,[6],0.5
same,concentration at 24 h,[7],12 nM
same,inhibition in vivo at 1 mg/kg,[8],56%
same,half-life,[9],19 min
same,concentration at 24 h,[10],67 nM
same,IC50,[11],> 40000 nM
same,half-life,[12],4 min
same,AUC(0-t) at 7 h,[13],24.3 µM·h
same,inhibition in vivo at 10 mg/kg,[14],91%
same,Drug metabolism,[15],Metabolite_Notdetected
same,Ratio,[16],0.2
same,concentration at 5 h,[17],24 nM
same,half-life,[18],49 min
same,Papp A→B,[19],28 ×10⁻⁶ cm/s
same,Ratio,[20],4
same,efflux ratio,[21],2.1
same,IC50,[22],0.53 nM
same,inhibition in vivo at 3 mg/kg,[23],77%
same,concentration at 5 h,[24],133 nM
same,concentration at 24 h,[25],77 nM
same,IC50,[26],> 50000 nM
same,half-life,[27],46 min
same,IC50,[28],> 50000 nM
same,IC50,[29],130 nM
same,Ratio,[30],1
same,logP,[31],2.45
same,Ki,[32],0.07 nM
same,Cmax,[33],10500 nM
same,inhibition in vivo at 0.3 mg/kg,[34],13%
